Experimental data reported in the supplement of paper PMC10307832.

How the values were obtained:
Test in all cases: relative viability (nuclei count vs DMSO), 5 days (fraction); higher = more cells survive
[1] = compound: Cc1ccc(NC(=O)c2ccc(CN3CCN(C)CC3)cc2)cc1Nc1nc(-c2cccnc2)cs1 [Masitinib] + O=C(c1cc(Cc2n[nH]c(=O)c3ccccc23)ccc1F)N1CCN(C(=O)C2CC2)CC1 [Olaparib] (partner 8 µM)
In short: (§1)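 One day after seeding in 1536-well plates, lung cancer cell lines were dosed by pin tool. Dosing was either single-drug or a fixed anchor-drug dose plus five library-drug doses (not always all listed) in √10 steps. After 5 days, nuclei were stained in one fix-and-stain step and counted on 4× images, and relative viability is the nuclei count of treated wells over that of vehicle wells, given as the median of duplicate plates.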

[2] = compound: Cc1ccc(NC(=O)c2ccc(CN3CCN(C)CC3)cc2)cc1Nc1nc(-c2cccnc2)cs1 [Masitinib] + C[C@@H](Oc1cc(-c2cnn(C3CCNCC3)c2)cnc1N)c1c(Cl)ccc(F)c1Cl [Crizotinib] (partner 1 µM)
In short: as §1

[3] = compound: CC1=CC(=CC=C1)NC2=NC(=CS2)C3=CC=NC=C3 + C[C@]1(O)C[C@@H](c2nc(-c3ccc4ccc(-c5ccccc5)nc4c3)c3c(N)nccn32)C1 [Linsitinib] (partner 1 µM)
In short: as §1

[4] = compound: Cc1ccc(NC(=O)c2ccc(CN3CCN(C)CC3)cc2)cc1Nc1nc(-c2cccnc2)cs1 [Masitinib] + Nc1nc2[nH]cc(CCc3ccc(C(=O)N[C@@H](CCC(=O)O)C(=O)O)cc3)c2c(=O)[nH]1 [Pemetrexed] (partner 0.2 µM)
In short: as §1

NCI-H647 gave a relative viability ([1]; first compound 0.01 µM) of 0.572, a relative viability ([1]; first compound 0.03162 µM) of 0.408 and a relative viability ([1]; first compound 0.1 µM) of 0.789. The relative viability ([1]; first compound 0.3162 µM) was 0.596, the relative viability ([1]; first compound 1 µM) was 0.642 and the relative viability ([2]; first compound 0.01 µM) was 1.06. It also gave a relative viability ([2]; first compound 0.03162 µM) of 0.987, a relative viability ([2]; first compound 0.1 µM) of 1.1 and a relative viability ([2]; first compound 0.3162 µM) of 1.21. It also gave a relative viability ([2]; first compound 1 µM) of 1.21, a relative viability ([3]; first compound 0.08 µM) of 1.01 and a relative viability ([3]; first compound 0.253 µM) of 0.992. It also gave a relative viability ([3]; first compound 0.8 µM) of 1.05, a relative viability ([3]; first compound 2.53 µM) of 1.1 and a relative viability ([3]; first compound 8 µM) of 0.815. The relative viability ([4]; first compound 0.01 µM) was 0.166, the relative viability ([4]; first compound 0.03162 µM) was 0.178 and the relative viability ([4]; first compound 0.1 µM) was 0.174. For the same cell line, the relative viability ([4]; first compound 0.3162 µM) was 0.185 and the relative viability ([4]; first compound 1 µM) was 0.164.

NCI-H838 was tested, and the relative viability ([1]; first compound 0.01 µM) was 0.835, the relative viability ([1]; first compound 0.03162 µM) was 0.739 and the relative viability ([1]; first compound 0.1 µM) was 0.83. For the same cell line, the relative viability ([1]; first compound 0.3162 µM) was 0.638, the relative viability ([1]; first compound 1 µM) was 0.832 and the relative viability ([2]; first compound 0.01 µM) was 0.95. For the same cell line, the relative viability ([2]; first compound 0.03162 µM) was 0.71, the relative viability ([2]; first compound 0.1 µM) was 0.828 and the relative viability ([2]; first compound 0.3162 µM) was 0.651. For the same cell line, the relative viability ([2]; first compound 1 µM) was 0.818, the relative viability ([3]; first compound 0.08 µM) was 0.882 and the relative viability ([3]; first compound 0.253 µM) was 0.937. The relative viability ([3]; first compound 0.8 µM) was 0.855, the relative viability ([3]; first compound 2.53 µM) was 0.868 and the relative viability ([3]; first compound 8 µM) was 0.651. It also gave a relative viability ([4]; first compound 0.01 µM) of 0.267, a relative viability ([4]; first compound 0.03162 µM) of 0.256 and a relative viability ([4]; first compound 0.1 µM) of 0.254. For the same cell line, the relative viability ([4]; first compound 0.3162 µM) was 0.247 and the relative viability ([4]; first compound 1 µM) was 0.244.

Cell Line H3255 has a relative viability ([1]; first compound 0.01 µM) of 0.474, a relative viability ([1]; first compound 0.03162 µM) of 0.566 and a relative viability ([1]; first compound 0.1 µM) of 0.513. For the same cell line, the relative viability ([1]; first compound 0.3162 µM) was 0.545, the relative viability ([1]; first compound 1 µM) was 0.555 and the relative viability ([2]; first compound 0.03162 µM) was 0.767. The relative viability ([2]; first compound 0.1 µM) was 0.711, the relative viability ([2]; first compound 0.3162 µM) was 0.722 and the relative viability ([2]; first compound 1 µM) was 0.815. It also gave a relative viability ([3]; first compound 0.08 µM) of 0.95, a relative viability ([3]; first compound 0.253 µM) of 0.951 and a relative viability ([3]; first compound 0.8 µM) of 0.966. The relative viability ([3]; first compound 2.53 µM) was 0.795, the relative viability ([3]; first compound 8 µM) was 0.956 and the relative viability ([4]; first compound 0.01 µM) was 0.57. The relative viability ([4]; first compound 0.03162 µM) was 0.59, the relative viability ([4]; first compound 0.1 µM) was 0.583 and the relative viability ([4]; first compound 0.3162 µM) was 0.54. It also gave a relative viability ([4]; first compound 1 µM) of 0.573.

LXF-289 gave a relative viability ([1]; first compound 0.01 µM) of 0.948, a relative viability ([1]; first compound 0.03162 µM) of 0.99 and a relative viability ([1]; first compound 0.1 µM) of 1.06. It also gave a relative viability ([1]; first compound 0.3162 µM) of 1.04, a relative viability ([1]; first compound 1 µM) of 1.02 and a relative viability ([2]; first compound 0.01 µM) of 0.701. It also gave a relative viability ([2]; first compound 0.03162 µM) of 0.783, a relative viability ([2]; first compound 0.1 µM) of 0.818 and a relative viability ([2]; first compound 0.3162 µM) of 0.835. The relative viability ([2]; first compound 1 µM) was 0.802, the relative viability ([3]; first compound 0.08 µM) was 0.971 and the relative viability ([3]; first compound 0.253 µM) was 0.933. For the same cell line, the relative viability ([3]; first compound 0.8 µM) was 0.955, the relative viability ([3]; first compound 2.53 µM) was 0.986 and the relative viability ([3]; first compound 8 µM) was 0.85. The relative viability ([4]; first compound 0.01 µM) was 0.773, the relative viability ([4]; first compound 0.03162 µM) was 0.973 and the relative viability ([4]; first compound 0.1 µM) was 0.917. It also gave a relative viability ([4]; first compound 0.3162 µM) of 0.971 and a relative viability ([4]; first compound 1 µM) of 0.943.

In the case of HCC-827, the relative viability ([1]; first compound 0.01 µM) is reported as 0.564, the relative viability ([1]; first compound 0.03162 µM) is reported as 0.642 and the relative viability ([1]; first compound 0.1 µM) is reported as 0.655. The relative viability ([1]; first compound 0.3162 µM) was 0.624, the relative viability ([1]; first compound 1 µM) was 0.695 and the relative viability ([2]; first compound 0.01 µM) was 0.725. The relative viability ([2]; first compound 0.03162 µM) was 0.961, the relative viability ([2]; first compound 0.1 µM) was 0.95 and the relative viability ([2]; first compound 0.3162 µM) was 0.893. For the same cell line, the relative viability ([2]; first compound 1 µM) was 0.895, the relative viability ([3]; first compound 0.08 µM) was 0.914 and the relative viability ([3]; first compound 0.253 µM) was 0.874. For the same cell line, the relative viability ([3]; first compound 0.8 µM) was 0.969, the relative viability ([3]; first compound 2.53 µM) was 0.906 and the relative viability ([3]; first compound 8 µM) was 0.907. The relative viability ([4]; first compound 0.01 µM) was 0.264, the relative viability ([4]; first compound 0.03162 µM) was 0.278 and the relative viability ([4]; first compound 0.1 µM) was 0.255. It also gave a relative viability ([4]; first compound 0.3162 µM) of 0.185 and a relative viability ([4]; first compound 1 µM) of 0.257.

LK-2 gave a relative viability ([1]; first compound 0.01 µM) of 0.8, a relative viability ([1]; first compound 0.03162 µM) of 0.679 and a relative viability ([1]; first compound 0.1 µM) of 1.01. The relative viability ([1]; first compound 0.3162 µM) was 0.615, the relative viability ([1]; first compound 1 µM) was 0.7 and the relative viability ([2]; first compound 0.01 µM) was 0.248. It also gave a relative viability ([2]; first compound 0.03162 µM) of 0.246, a relative viability ([2]; first compound 0.1 µM) of 0.21 and a relative viability ([2]; first compound 0.3162 µM) of 0.217. For the same cell line, the relative viability ([2]; first compound 1 µM) was 0.188, the relative viability ([3]; first compound 0.08 µM) was 0.581 and the relative viability ([3]; first compound 0.253 µM) was 0.778. It also gave a relative viability ([3]; first compound 0.8 µM) of 0.729, a relative viability ([3]; first compound 2.53 µM) of 0.413 and a relative viability ([3]; first compound 8 µM) of 0.427. For the same cell line, the relative viability ([4]; first compound 0.01 µM) was 0.291, the relative viability ([4]; first compound 0.03162 µM) was 0.34 and the relative viability ([4]; first compound 0.1 µM) was 0.31. For the same cell line, the relative viability ([4]; first compound 0.3162 µM) was 0.281 and the relative viability ([4]; first compound 1 µM) was 0.217.

In the case of HCC-366, the relative viability ([1]; first compound 0.03162 µM) is reported as 0.384, the relative viability ([1]; first compound 0.1 µM) is reported as 0.357 and the relative viability ([1]; first compound 0.3162 µM) is reported as 0.343. The relative viability ([1]; first compound 1 µM) was 0.396, the relative viability ([2]; first compound 0.01 µM) was 0.467 and the relative viability ([2]; first compound 0.03162 µM) was 0.517. The relative viability ([2]; first compound 0.1 µM) was 0.721, the relative viability ([2]; first compound 0.3162 µM) was 0.334 and the relative viability ([2]; first compound 1 µM) was 0.444. It also gave a relative viability ([3]; first compound 0.08 µM) of 0.454, a relative viability ([3]; first compound 0.253 µM) of 0.593 and a relative viability ([3]; first compound 0.8 µM) of 0.501. It also gave a relative viability ([3]; first compound 2.53 µM) of 0.563, a relative viability ([3]; first compound 8 µM) of 0.399 and a relative viability ([4]; first compound 0.03162 µM) of 0.174. For the same cell line, the relative viability ([4]; first compound 0.1 µM) was 0.148, the relative viability ([4]; first compound 0.3162 µM) was 0.137 and the relative viability ([4]; first compound 1 µM) was 0.146.

For BEN, the relative viability ([1]; first compound 0.01 µM) was 1.21, the relative viability ([1]; first compound 0.03162 µM) was 1.1 and the relative viability ([1]; first compound 0.1 µM) was 1.4. For the same cell line, the relative viability ([1]; first compound 0.3162 µM) was 1.23, the relative viability ([1]; first compound 1 µM) was 1.08 and the relative viability ([2]; first compound 0.01 µM) was 0.888. For the same cell line, the relative viability ([2]; first compound 0.03162 µM) was 0.834, the relative viability ([2]; first compound 0.1 µM) was 1.09 and the relative viability ([2]; first compound 0.3162 µM) was 1.18. The relative viability ([2]; first compound 1 µM) was 0.765, the relative viability ([3]; first compound 0.08 µM) was 0.881 and the relative viability ([3]; first compound 0.253 µM) was 0.925. It also gave a relative viability ([3]; first compound 0.8 µM) of 0.89, a relative viability ([3]; first compound 2.53 µM) of 0.777 and a relative viability ([3]; first compound 8 µM) of 0.813. It also gave a relative viability ([4]; first compound 0.01 µM) of 0.886, a relative viability ([4]; first compound 0.03162 µM) of 0.713 and a relative viability ([4]; first compound 0.1 µM) of 0.897. It also gave a relative viability ([4]; first compound 0.3162 µM) of 0.704 and a relative viability ([4]; first compound 1 µM) of 0.777.
